PMC9386018, “A lymphatic-absorbed multi-targeted kinase inhibitor for myelofibrosis therapy” (Nature Communications, 2022)
Values joined by “and” are separate entries in the source; they are usually repeats but may differ in a detail not shown here. Equal entries are not always repeated.

What was measured:
[1] = Pathological and histological toxicity screening in healthy mice; type: in vivo, mouse; design: Hematology Analysis WBC: unit not given here; details: for Body weight: Supplementary Figure 8a
Protocol: Female CD-1 mice were dosed orally with vehicle (Maisine CC; n = 5) or LP-182 at 400 mg kg^−1 (n = 4) daily for 10 d, followed by an 8 d rest period, then underwent necropsy for hematological, histological, and pathological evaluation by the University of Michigan Unit for Laboratory Animal Medicine In Vivo Animal Core. Untreated animals (n = 3) were also monitored during the study for non-compound related adverse findings (ie. gavage stress impacting weight gain, vehicle-related toxicity), however no findings were observed, thus main comparisons were made between vehicle and compound treated mice. […] Briefly, mice were euthanized by CO2 inhalation, then blood was collected by cardiac puncture and transferred into EDTA anticoagulant-containing tubes, followed by gross necropsy, then tissue harvest and fixation in 10% neutral buffered formalin at a 10:1 (v/v) ratio of fixative to tissue. Differential blood counts were generated from whole blood using a Hemavet 950 automated hematology analyzer (Drew Scientific), and tissues were processed for paraffin embedding using routine histological methods, then sectioned at 4 µm by rotary microtome and mounted on glass slides for hematoxylin and eosin (H&E) staining and evaluation by light microscopy at magnifications ranging from 10–40x. Data was generated from n ≥ 3 individual animals per grouping. Two animals in the vehicle treated group were excluded from blood count analysis due to insufficient sample collection and sample clotting, respectively.

[2] = Fractionation of lymphatic fluid into lipoprotein fractions by ultracentrifugation; type: in vivo; details: rat lymphatic fluid, 50 mg kg^−1 intra-duodenal
Protocol: Briefly, acetonitrile was added to a final concentration of 60–80% to bone marrow, whole blood, plasma, lymphatic fluid, lymphatic proteo-lipid sub-fractions, or mesenteric lymph node samples for compound extraction. Extraction was performed by shaking and/or bead rupture using a Precellys Evolution tissue homogenizer (Bertin Technologies SAS). […] Optimization of MS and MS/MS parameters for MRM quantitation and maximum sensitivity of individual compounds was performed using SCIEX Analyst software (AB Sciex). […] All LC-MS/MS acquisitions were performed with an independent standard curve for each group of analytes and for each individual run. All solvents utilized were of Optima LC-MS Grade (Fisher Scientific). Data was generated from n ≥ 2 individual animals per compound per study condition or dose.

[3] = healthy mice, oral 400 mg kg^−1 for 10 d, 8 d rest
[4] = individual animals, Supplementary Figure 8c
[5] = individual animals, Supplementary Figure 8c, in 10^3/µL (unit assumed)
[6] = individual animals, Supplementary Figure 8c, in % (unit assumed)
[7] = individual animals, Supplementary Figure 8c, in fL (unit assumed)
[8] = individual animals, Supplementary Figure 8c, in g/dL (unit assumed)

SMILES: O=C(NOCCOCCOCCOCCC(=O)N1CCN(c2cnc3ccc(-c4cnc(Cl)c(NS(=O)(=O)c5ccc(F)cc5)c4)cc3n2)CC1)c1ccc(F)c(F)c1Nc1ccc(I)cc1F [LP-182, N-(2-(2-(2-(3-(4-(7-(6-chloro-5-((4-fluorophenyl)sulfonamido)pyridin-3-yl)quinoxalin-2-yl)piperazin-1-yl)-3-oxopropoxy)ethoxy)ethoxy)ethoxy)-3,4-difluoro-2-((2-fluoro-4-iodophenyl)amino)benzamide]
- Relative organ/body weight, Brain ([1]; Brain, individual animals, Supplementary Figure 8b): 1.539% and 1.685% and 1.7935% and 1.6704%
- Relative organ/body weight, Left kidney ([1]; Left kidney, individual animals, Supplementary Figure 8b): 0.6549% and 0.6559% and 0.6824% and 0.6502%
- Relative organ/body weight, Liver ([1]; Liver, individual animals, Supplementary Figure 8b): 5.775% and 6.631% and 5.788% and 5.583%
- Relative organ/body weight, Right kidney ([1]; Right kidney, individual animals, Supplementary Figure 8b): 0.662% and 0.6523% and 0.6788% and 0.6203%
- Relative organ/body weight, Spleen ([1]; Spleen, individual animals, Supplementary Figure 8b): 0.5915% and 0.4229% and 0.6217% and 0.4223%
- Relative organ/body weight, Thymus ([1]; Thymus, individual animals, Supplementary Figure 8b): 0.2641% and 0.1505% and 0.283% and 0.2317%
- Body weight ([1]; Time 1 d, individual animals): 24 g and 26 g and 25 g (2×)
- Body weight ([1]; Time 5 d, individual animals): 26 g (3×) and 27 g
- Body weight ([1]; Time 10 d, individual animals): 26 g (3×) and 27 g
- Body weight ([1]; Time 15 d, individual animals): 27 g (3×) and 30 g
- Body weight ([1]; Time 18 d, individual animals): 28.4 g and 27.9 g and 27.99 g and 26.76 g
- adverse effects, body weight, complete blood counts [1, 3]: no adverse effects, change in body weight, or change in complete blood counts
- necropsy histopathology [1, 3]: no histopathological abnormalities
- tolerability [1, 3]: well tolerated with no observed toxicity
- Hematology Analysis BA [1, 4]: 0.03 and 0.02 and 0.04 and 0.06
- Hematology Analysis EO [1, 4]: 0.24 and 0.11 and 0.2 and 0.16
- Hematology Analysis WBC [1, 4]: 7.06 and 10.06 and 5.16 (2×)
- Hematology Analysis LY [1, 5]: 4.99 and 6.24 and 3.4 and 3.44
- Hematology Analysis MO [1, 5]: 0.24 and 0.93 and 0.14 and 0.21
- Hematology Analysis NE [1, 5]: 1.57 and 2.76 and 1.38 and 1.3
- Hematology Analysis PLT [1, 5]: 721 and 1152 and 272 and 338
- Hematology Analysis RBC ([1]; individual animals, Supplementary Figure 8c, in 10^6/µL (unit assumed)): 8.48 and 9.05 and 9.08 and 9.55
- Hematology Analysis HCT [1, 6]: 49.5 and 47.2 and 51.7 and 49.4
- Hematology Analysis RDW [1, 6]: 16.8 and 16.2 and 17.4 and 15.3
- Hematology Analysis MCV [1, 7]: 58.4 and 52.2 and 56.9 and 51.7
- Hematology Analysis MPV [1, 7]: 5.2 and 4.6 and 5.8 and 5.6
- Hematology Analysis HB [1, 8]: 13.7 and 13.8 and 15 and 14.2
- Hematology Analysis MCHC [1, 8]: 27.7 and 29.2 and 29 and 28.7
- Hematology Analysis MCH ([1]; individual animals, Supplementary Figure 8c, in pg (unit assumed)): 16.2 and 15.2 and 16.5 and 14.9
- association with VLDL fraction, % of total [2]: 9.7%
- association with chylomicron fraction, % of total [2]: 8.0%
